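48-hour exposure; five concentrations; linearly interpolated endpoints. TGI denotes the concentration required for complete inhibition of growth.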
What was measured:
Assay in all cases: DTP human tumour cell line panel, 48 h
786-0 renal = test system: 786-0 renal
A498 renal = test system: A498 renal
A549 NSCLC = test system: A549 NSCLC
ACHN renal = test system: ACHN renal
CAKI-1 renal = test system: CAKI-1 renal
CCRF-CEM leukemia = test system: CCRF-CEM leukemia
COLO 205 colon = test system: COLO 205 colon
DLD-1 colon = test system: DLD-1 colon
DMS 114 small cell lung = test system: DMS 114 small cell lung
DMS 273 small cell lung = test system: DMS 273 small cell lung
EKVX NSCLC = test system: EKVX NSCLC
HCC-2998 colon = test system: HCC-2998 colon
HCT-116 colon = test system: HCT-116 colon
HCT-15 colon = test system: HCT-15 colon
HL-60(TB) leukemia = test system: HL-60(TB) leukemia
HOP-18 NSCLC = test system: HOP-18 NSCLC
HOP-62 NSCLC = test system: HOP-62 NSCLC
HOP-92 NSCLC = test system: HOP-92 NSCLC
HT29 colon = test system: HT29 colon
IGROV1 ovarian = test system: IGROV1 ovarian
K-562 leukemia = test system: K-562 leukemia
KM12 colon = test system: KM12 colon
KM20L2 colon = test system: KM20L2 colon
LOX IMVI melanoma = test system: LOX IMVI melanoma
LXFL 529 NSCLC = test system: LXFL 529 NSCLC
M14 melanoma = test system: M14 melanoma
M19-MEL melanoma = test system: M19-MEL melanoma
MALME-3M melanoma = test system: MALME-3M melanoma
MOLT-4 leukemia = test system: MOLT-4 leukemia
NCI-H226 lung = test system: NCI-H226 lung
NCI-H23 lung = test system: NCI-H23 lung
NCI-H460 lung = test system: NCI-H460 lung
NCI-H522 lung = test system: NCI-H522 lung
OVCAR-3 ovarian = test system: OVCAR-3 ovarian
OVCAR-4 ovarian = test system: OVCAR-4 ovarian
OVCAR-5 ovarian = test system: OVCAR-5 ovarian
OVCAR-8 ovarian = test system: OVCAR-8 ovarian
RPMI-8226 leukemia = test system: RPMI-8226 leukemia
SF-268 CNS = test system: SF-268 CNS
SF-295 CNS = test system: SF-295 CNS
SF-539 CNS = test system: SF-539 CNS
SK-MEL-2 melanoma = test system: SK-MEL-2 melanoma
SK-MEL-28 melanoma = test system: SK-MEL-28 melanoma
SK-MEL-5 melanoma = test system: SK-MEL-5 melanoma
SK-OV-3 ovarian = test system: SK-OV-3 ovarian
SN12C renal = test system: SN12C renal
SNB-19 CNS = test system: SNB-19 CNS
SNB-75 CNS = test system: SNB-75 CNS
SNB-78 CNS = test system: SNB-78 CNS
SR leukemia = test system: SR leukemia
SW-620 colon = test system: SW-620 colon
TK-10 renal = test system: TK-10 renal
U251 CNS = test system: U251 CNS
UACC-257 melanoma = test system: UACC-257 melanoma
XF 498 CNS = test system: XF 498 CNS
RXF 393 renal = test system: RXF 393 renal
UACC-62 melanoma = test system: UACC-62 melanoma
UO-31 renal = test system: UO-31 renal

Structure (SMILES): CC1(C)O[C@@H](CC/C=C/CO)[C@H](CC/C=C/CO)O1
- TGI (786-0 renal): > 100 µM
- TGI (A498 renal): > 100 µM
- TGI (A549 NSCLC): > 100 µM
- TGI (ACHN renal): > 100 µM
- TGI (CAKI-1 renal): > 100 µM
- TGI (CCRF-CEM leukemia): > 100 µM
- TGI (COLO 205 colon): > 100 µM
- TGI (DLD-1 colon): > 100 µM
- TGI (DMS 114 small cell lung): > 100 µM
- TGI (DMS 273 small cell lung): > 100 µM
- TGI (EKVX NSCLC): > 100 µM
- TGI (HCC-2998 colon): > 100 µM
- TGI (HCT-116 colon): > 100 µM
- TGI (HCT-15 colon): > 100 µM
- TGI (HL-60(TB) leukemia): > 100 µM
- TGI (HOP-18 NSCLC): > 100 µM
- TGI (HOP-62 NSCLC): > 100 µM
- TGI (HOP-92 NSCLC): > 100 µM
- TGI (HT29 colon): > 100 µM
- TGI (IGROV1 ovarian): > 100 µM
- TGI (K-562 leukemia): > 100 µM
- TGI (KM12 colon): > 100 µM
- TGI (KM20L2 colon): > 100 µM
- TGI (LOX IMVI melanoma): > 100 µM
- TGI (LXFL 529 NSCLC): > 100 µM
- TGI (M14 melanoma): > 100 µM
- TGI (M19-MEL melanoma): > 100 µM
- TGI (MALME-3M melanoma): > 100 µM
- TGI (MOLT-4 leukemia): > 100 µM
- TGI (NCI-H226 lung): > 100 µM
- TGI (NCI-H23 lung): > 100 µM
- TGI (NCI-H460 lung): > 100 µM
- TGI (NCI-H522 lung): > 100 µM
- TGI (OVCAR-3 ovarian): > 100 µM
- TGI (OVCAR-4 ovarian): > 100 µM
- TGI (OVCAR-5 ovarian): > 100 µM
- TGI (OVCAR-8 ovarian): > 100 µM
- TGI (RPMI-8226 leukemia): > 100 µM
- TGI (SF-268 CNS): > 100 µM
- TGI (SF-295 CNS): > 100 µM
- TGI (SF-539 CNS): > 100 µM
- TGI (SK-MEL-2 melanoma): > 100 µM
- TGI (SK-MEL-28 melanoma): > 100 µM
- TGI (SK-MEL-5 melanoma): > 100 µM
- TGI (SK-OV-3 ovarian): > 100 µM
- TGI (SN12C renal): > 100 µM
- TGI (SNB-19 CNS): > 100 µM
- TGI (SNB-75 CNS): > 100 µM
- TGI (SNB-78 CNS): > 100 µM
- TGI (SR leukemia): > 100 µM
- TGI (SW-620 colon): > 100 µM
- TGI (TK-10 renal): > 100 µM
- TGI (U251 CNS): > 100 µM
- TGI (UACC-257 melanoma): > 100 µM
- TGI (XF 498 CNS): > 100 µM

Structure (SMILES): O=C1C(Cl)C(c2cc(Br)ccc2O)N1n1cnc2ccccc2c1=O (stereo not drawn)
- TGI (786-0 renal): > 100 µM
- TGI (A498 renal): > 100 µM
- TGI (A549 NSCLC): > 100 µM
- TGI (ACHN renal): > 95.2 µM
- TGI (CAKI-1 renal): > 94.3 µM
- TGI (CCRF-CEM leukemia): > 100 µM
- TGI (COLO 205 colon): > 100 µM
- TGI (DLD-1 colon): > 100 µM
- TGI (DMS 114 small cell lung): 28.2 µM
- TGI (DMS 273 small cell lung): > 73.2 µM
- TGI (EKVX NSCLC): 27.8 µM
- TGI (HCC-2998 colon): 65.9 µM
- TGI (HCT-116 colon): 33.3 µM
- TGI (HCT-15 colon): > 100 µM
- TGI (HL-60(TB) leukemia): 16.4 µM
- TGI (HOP-18 NSCLC): 45.5 µM
- TGI (HOP-62 NSCLC): > 100 µM
- TGI (HOP-92 NSCLC): 71.1 µM
- TGI (HT29 colon): > 100 µM
- TGI (IGROV1 ovarian): > 92.7 µM
- TGI (K-562 leukemia): > 47.3 µM
- TGI (KM12 colon): > 100 µM
- TGI (KM20L2 colon): > 100 µM
- TGI (LOX IMVI melanoma): > 100 µM
- TGI (LXFL 529 NSCLC): > 100 µM
- TGI (M14 melanoma): 27.6 µM
- TGI (M19-MEL melanoma): 35.1 µM
- TGI (MALME-3M melanoma): 70.1 µM
- TGI (MOLT-4 leukemia): 29 µM
- TGI (NCI-H226 lung): 39.1 µM
- TGI (NCI-H23 lung): > 71 µM
- TGI (NCI-H460 lung): 60.5 µM
- TGI (NCI-H522 lung): > 51.5 µM
- TGI (OVCAR-3 ovarian): > 82.1 µM
- TGI (OVCAR-4 ovarian): > 82.7 µM
- TGI (OVCAR-5 ovarian): > 100 µM
- TGI (OVCAR-8 ovarian): > 100 µM
- TGI (RPMI-8226 leukemia): 43.7 µM
- TGI (RXF 393 renal): > 100 µM
- TGI (SF-268 CNS): > 55 µM
- TGI (SF-295 CNS): > 100 µM
- TGI (SF-539 CNS): > 100 µM
- TGI (SK-MEL-2 melanoma): > 100 µM
- TGI (SK-MEL-28 melanoma): > 78.2 µM
- TGI (SK-MEL-5 melanoma): > 86.8 µM
- TGI (SK-OV-3 ovarian): > 100 µM
- TGI (SN12C renal): > 100 µM
- TGI (SNB-19 CNS): > 62.9 µM
- TGI (SNB-75 CNS): 71.4 µM
- TGI (SNB-78 CNS): > 93.9 µM
- TGI (SR leukemia): > 36.9 µM
- TGI (SW-620 colon): > 100 µM
- TGI (TK-10 renal): > 100 µM
- TGI (U251 CNS): > 100 µM
- TGI (UACC-257 melanoma): 49.1 µM
- TGI (UACC-62 melanoma): > 68 µM
- TGI (UO-31 renal): > 56.3 µM
- TGI (XF 498 CNS): > 100 µM
